According to patent publication US20260207623A1, “USE OF ESTETROL IN HEPATICALLY IMPAIRED PATIENTS” (ESTETRA SRL, priority 2022, published 2026):
“And” between values parts separate entries of the source, which are not always exact repeats. Identical values can stand only once. Like-named read-outs stand apart in the source and are kept apart here.

Test: Phase 1 pharmacokinetic study of a single oral dose of 20 mg E4 monohydrate in female subjects with normal hepatic function and mild, moderate or severe hepatic impairment (plasma, LC-MS/MS, non-compartmental analysis)
Assay type: in vivo, human
Settings: for AUC(0-t) / Cmax / half-life / Tmax / Vd/F / AUC(0-inf): female, human, plasma, po, 20 mg; for Tmax: read-out: Tmax, Median
Protocol: This was a Phase 1, multi-centre, open-label, PK, and safety study of a single oral dose of 20 mg E4 monohydrate in female subjects with normal hepatic function (Group 1), mild hepatic impairment (Group 2), moderate hepatic impairment (Group 3), and severe hepatic impairment (Group 4), as defined using the Child-Pugh classification at Screening.
The study consisted of an eligibility Screening period (within 28 days prior to study drug administration), an Assessment Period with in-house period and outpatient visits (including a single oral dose of 20 mg E4 on Day 1), and a follow up visit. All subjects were confined to the study site from Day-1 (the day before dosing) until Day 4 and returned to the site every day from Day 5 to Day 9. Alternatively, the subjects could stay for a prolonged in-house period in agreement with the Investigator. The follow-up visit occurred on Day 14 (+2 days).
All subjects arrived at the study site in the morning of Day-1 in a fasted state (no food for at least 8 h, water was allowed) to have the scheduled assessments performed in order to confirm eligibility as outlined in the inclusion and exclusion criteria (Section 2.3.1 and Section 2.3.2, respectively). In the morning of Day 1 following an overnight fast, the subjects received oral dosing of 20 mg E4 monohydrate and remained at the site. Study-related assessments were performed at time points indicated in the Schedule of Assessments in Table 2.
Serial blood sampling for PK assessments started on Day 1 and proceeded until Day 9 according to the Pharmacokinetic Sampling Schedule presented in Table 3.
Each enrolled subject was to receive a single oral dose of 20 mg of E4 (estetrol) as monohydrate as a film-coated tablet.
Study drug was administered to subjects in the morning after an overnight fast of at least 8 h.
Calculation of non-compartmental PK parameters were done using WinNonlin™ Professional, Version 6.3 or higher.
The primary PK parameters to be analyzed for E4 in plasma: • Cmax=maximum observed plasma concentration • AUCinf=area under the concentration-time curve (AUC) from time zero extrapolated to infinity
The analysis of E4 and the metabolites E4-3-glucuronide and E4-16-glucuronide in plasma samples were performed at the Bioanalytical Laboratory of the CRO using a validated liquid chromatography-mass spectrometry/mass spectrometry method.
Individual and mean plasma concentrations at each sampling time point for E4 are presented by listings and descriptive summary statistics including means, geometric means (GMs), medians, ranges, standard deviations (SD) and coefficients of variation (CV). Individual, mean and/or median concentrations per hepatic function group were plotted versus time on semilogarithmic scales.
PK parameters were calculated by non-compartmental analysis. PK parameters were analysed using descriptive statistics and are presented by hepatic function group.
Analysis of variance (ANOVA) were used to compare primary PK parameters of E4 (Cmax and AUCinf) between subjects with hepatic impairment and subjects with normal hepatic function in an exploratory approach, using the log-transformed value of each PK parameter as dependent variable, and the hepatic impairment group (normal, mild, moderate, and severe) as a fixed classification factor. Geometric least squares means were used to calculate the ratios of primary PK parameters for each hepatic impairment group to those in the control group, along with 90% confidence intervals (CIs).
Additionally, the impact of age and BMI on the effect of hepatic impairment were evaluated using an ANOVA model similar as the ANOVA model described above, but with the interaction between each factor and the hepatic impairment group included as an additional factor.
The relationship between log-transformed PK parameters (Cmax and AUCinf) and continuous parameters (albumin, total bilirubin, and prothrombin time) used for the Child-Pugh score was explored by a linear regression approach. […]

[1] = mild hepatic impairment, single oral dose 20 mg
[2] = moderate hepatic impairment, single oral dose 20 mg
[3] = severe hepatic impairment, single oral dose 20 mg

## C[C@]12CC[C@@H]3c4ccc(O)cc4CC[C@H]3[C@@H]1[C@@H](O)[C@@H](O)[C@@H]2O [E4, 1,3,5 (10)-estratrien-3,15alpha, 16alpha, 17beta-tetrol]
Moderate hepatic impairment, single oral dose 20 mg E4 monohydrate, read-out: AUClast, Mean
  AUC(0-t): 122 ng·h/mL
Moderate hepatic impairment, single oral dose 20 mg E4 monohydrate, read-out: AUClast, Median
  AUC(0-t): 114 ng·h/mL
Moderate hepatic impairment, single oral dose 20 mg E4 monohydrate, read-out: Cmax, GM
  Cmax: 39.4 ng/mL
Moderate hepatic impairment, single oral dose 20 mg E4 monohydrate, read-out: Cmax, Mean
  Cmax: ~52 ng/mL
Moderate hepatic impairment, single oral dose 20 mg E4 monohydrate, read-out: Cmax, Median
  Cmax: 41.1 ng/mL
Moderate hepatic impairment, single oral dose 20 mg E4 monohydrate, read-out: T1/2, GM (converted)
  half-life: 14.8 h
Moderate hepatic impairment, single oral dose 20 mg E4 monohydrate, read-out: T1/2, Mean (converted)
  half-life: 16.6 h
Moderate hepatic impairment, single oral dose 20 mg E4 monohydrate, read-out: T1/2, Median (converted)
  half-life: 14.3 h
Moderate hepatic impairment, single oral dose 20 mg E4 monohydrate
  Tmax: 0.5 h
Moderate hepatic impairment, single oral dose 20 mg E4 monohydrate, read-out: Vz/F, GM
  Vd/F: 3960 L
Moderate hepatic impairment, single oral dose 20 mg E4 monohydrate, read-out: Vz/F, Mean
  Vd/F: 4760 L
Moderate hepatic impairment, single oral dose 20 mg E4 monohydrate, read-out: Vz/F, Median
  Vd/F: 4150 L
Normal (Reference), one-way ANOVA, single oral dose 20 mg, read-out: AUCinf, Geometric LS Mean
  AUC(0-inf): 104 ng·h/mL
Normal (Reference), one-way ANOVA, single oral dose 20 mg, read-out: Cmax, Geometric LS Mean
  Cmax: 20.8 ng/mL
Normal hepatic function, single oral dose 20 mg E4 monohydrate, read-out: AUC0-24 h, GM
  AUC(0-t): 60.4 ng·h/mL
Normal hepatic function, single oral dose 20 mg E4 monohydrate, read-out: AUC0-24 h, Mean
  AUC(0-t): 63.5 ng·h/mL
Normal hepatic function, single oral dose 20 mg E4 monohydrate, read-out: AUC0-24 h, Median
  AUC(0-t): 63.8 ng·h/mL
Normal hepatic function, single oral dose 20 mg E4 monohydrate, read-out: AUCinf, GM
  AUC(0-inf): 104 ng·h/mL
Normal hepatic function, single oral dose 20 mg E4 monohydrate, read-out: AUCinf, Mean
  AUC(0-inf): 108 ng·h/mL
Normal hepatic function, single oral dose 20 mg E4 monohydrate, read-out: AUCinf, Median
  AUC(0-inf): 113 ng·h/mL
Normal hepatic function, single oral dose 20 mg E4 monohydrate, read-out: AUClast, GM
  AUC(0-t): 103 ng·h/mL
Normal hepatic function, single oral dose 20 mg E4 monohydrate, read-out: AUClast, Mean
  AUC(0-t): 107 ng·h/mL
Normal hepatic function, single oral dose 20 mg E4 monohydrate, read-out: AUClast, Median
  AUC(0-t): 111 ng·h/mL
Normal hepatic function, single oral dose 20 mg E4 monohydrate, read-out: Cmax, GM
  Cmax: 20.8 ng/mL
Normal hepatic function, single oral dose 20 mg E4 monohydrate, read-out: Cmax, Mean
  Cmax: ~24 ng/mL
Normal hepatic function, single oral dose 20 mg E4 monohydrate, read-out: Cmax, Median
  Cmax: 24.8 ng/mL
Normal hepatic function, single oral dose 20 mg E4 monohydrate, read-out: T1/2, GM (converted)
  half-life: 21.7 h
Normal hepatic function, single oral dose 20 mg E4 monohydrate, read-out: T1/2, Mean (converted)
  half-life: 22.3 h
Normal hepatic function, single oral dose 20 mg E4 monohydrate, read-out: T1/2, Median (converted)
  half-life: 22.7 h
Normal hepatic function, single oral dose 20 mg E4 monohydrate
  Tmax: 0.475 h
Normal hepatic function, single oral dose 20 mg E4 monohydrate, read-out: Vz/F, GM
  Vd/F: 6000 L
Normal hepatic function, single oral dose 20 mg E4 monohydrate, read-out: Vz/F, Mean
  Vd/F: 6590 L
Normal hepatic function, single oral dose 20 mg E4 monohydrate, read-out: Vz/F, Median
  Vd/F: 6430 L
Severe (Test), one-way ANOVA, single oral dose 20 mg, read-out: AUCinf, Geometric LS Mean
  AUC(0-inf): 198 ng·h/mL
Severe (Test), one-way ANOVA, single oral dose 20 mg, read-out: Cmax, Geometric LS Mean
  Cmax: 111 ng/mL
Severe hepatic impairment, single oral dose 20 mg E4 monohydrate, read-out: AUC0-24 h, GM
  AUC(0-t): 179 ng·h/mL
Severe hepatic impairment, single oral dose 20 mg E4 monohydrate, read-out: AUC0-24 h, Mean
  AUC(0-t): 184 ng·h/mL
Severe hepatic impairment, single oral dose 20 mg E4 monohydrate, read-out: AUC0-24 h, Median
  AUC(0-t): 172 ng·h/mL
Severe hepatic impairment, single oral dose 20 mg E4 monohydrate, read-out: AUCinf, GM
  AUC(0-inf): 198 ng·h/mL
Severe hepatic impairment, single oral dose 20 mg E4 monohydrate, read-out: AUCinf, Mean
  AUC(0-inf): 205 ng·h/mL
Severe hepatic impairment, single oral dose 20 mg E4 monohydrate, read-out: AUCinf, Median
  AUC(0-inf): 180 ng·h/mL
Severe hepatic impairment, single oral dose 20 mg E4 monohydrate, read-out: AUClast, GM
  AUC(0-t): 196 ng·h/mL
Severe hepatic impairment, single oral dose 20 mg E4 monohydrate, read-out: AUClast, Mean
  AUC(0-t): 204 ng·h/mL
Severe hepatic impairment, single oral dose 20 mg E4 monohydrate, read-out: AUClast, Median
  AUC(0-t): 178 ng·h/mL
Severe hepatic impairment, single oral dose 20 mg E4 monohydrate, read-out: Cmax, GM
  Cmax: 111 ng/mL
Severe hepatic impairment, single oral dose 20 mg E4 monohydrate, read-out: Cmax, Mean
  Cmax: ~117 ng/mL
Severe hepatic impairment, single oral dose 20 mg E4 monohydrate, read-out: Cmax, Median
  Cmax: 109 ng/mL
Severe hepatic impairment, single oral dose 20 mg E4 monohydrate, read-out: T1/2, GM (converted)
  half-life: 8.22 h
Severe hepatic impairment, single oral dose 20 mg E4 monohydrate, read-out: T1/2, Mean (converted)
  half-life: 8.97 h
Severe hepatic impairment, single oral dose 20 mg E4 monohydrate, read-out: T1/2, Median (converted)
  half-life: 6.26 h
Severe hepatic impairment, single oral dose 20 mg E4 monohydrate
  Tmax: 0.25 h
Severe hepatic impairment, single oral dose 20 mg E4 monohydrate, read-out: Vz/F, GM
  Vd/F: 1200 L
Severe hepatic impairment, single oral dose 20 mg E4 monohydrate, read-out: Vz/F, Mean
  Vd/F: 1260 L
Severe hepatic impairment, single oral dose 20 mg E4 monohydrate, read-out: Vz/F, Median
  Vd/F: 1220 L
Group of severe hepatic impairment
  time to primary peak plasma concentration after administration: ≤ 15 min
Mild hepatic impairment
  time post dose until which concentrations remained above LLOQ in at least half of the subjects: 144 h
Mild hepatic impairment, 192 h = last measured timepoint
  time post-dose of last measurable concentration (Clast): 192 h
[1]
  GM AUCinf compared to the control group (normal hepatic function): ~ 1.1 fold and 1.120 fold
  GM Cmax compared to the control group (normal hepatic function): ~ 1.7 fold and 1.661 fold
Moderate hepatic impairment
  time post dose until which concentrations remained above LLOQ in at least half of the subjects: 96 h
  time post-dose of last measurable concentration (Clast): 144 h
[2]
  GM AUCinf compared to the control group (normal hepatic function): ~ 1.0 fold and 1.032 fold
  GM Cmax compared to the control group (normal hepatic function): ~ 1.9 fold and 1.896 fold
Normal hepatic function
  time post dose until which concentrations remained above LLOQ in at least half of the subjects: 144 h
Normal hepatic function, 192 h = last measured timepoint
  time post-dose of last measurable concentration (Clast): 192 h
On average, single oral dose 20 mg
  time to primary peak plasma concentration after administration: ≤ 30 min
Severe hepatic impairment
  time post dose until which concentrations remained above LLOQ in at least half of the subjects: 48 h
  time post-dose of last measurable concentration (Clast): 168 h
[3]
  GM AUCinf compared to the control group (normal hepatic function): ~ 1.9 fold and 1.894 fold
  GM Cmax compared to the control group (normal hepatic function): ~ 5.4 fold and 5.359 fold
Single oral dose 20 mg
  time after which log-linear terminal elimination phase is entered: ~ 12 h
